Measurements published in patent US4409210A, “Antibiotic compound” (priority 1982, dated 1983).
Values after ≈ are worked out from the molar mass of the structure shown.

Legend:
Assay type in all cases: cell-based
[1] = tested on: Clostridium acidiurici A9560; experiment: MIC, serial two-fold dilution method (anaerobic); details: Gottschalkia acidurici; Clostridium acidiurici A9560; GAM agar medium; inoculum 10^7-10^8; read-out: minimum inhibitory concentration (MIC)
[2] = tested on: Bacteroides fragilis A20928-1; experiment: MIC, serial two-fold dilution method (anaerobic); details: A209281; Bacteroides fragilis A20928-1; GAM agar medium; inoculum 10^7-10^8; read-out: minimum inhibitory concentration (MIC)
[3] = tested on: Veillonella parvula A20010; experiment: MIC, serial two-fold dilution method (anaerobic); details: Veillonella parvula A20010; GAM agar medium; inoculum 10^7-10^8; read-out: minimum inhibitory concentration (MIC)
[4] = tested on: Clostridium difficile A21675; experiment: MIC, serial two-fold dilution method (anaerobic); details: Clostridioides difficile; Clostridium difficile A21675; GAM agar medium; inoculum 10^7-10^8; read-out: minimum inhibitory concentration (MIC)
Protocol: (§1) The minimum inhibitory concentration (MIC) of Bu-2517 was determined for a variety of aerobic and anaerobic bacteria by the serial two-fold dilution method using a multi-inoculating apparatus. Mueller-Hinton agar was generally used for aerobic bacteria, GC medium (Eiken) for fastidious aerobic organisms such as streptococci, Neisseria and Haemophilus species, and GAM agar medium (Nissui) for anaerobic bacteria. The inoculum size was adjusted to 10^6 CFU/ml for streptococci, Neisseria and Haemophilus species, 10^4 for other aerobic bacteria and 10^7 -10^8 for all anaerobic organisms. Amphomycin, ampicillin, chloramphenicol, clindamycin, erthromycin, kanamycin and vancomycin were used as reference antibiotics.

[5] = tested on: Clostridium chauvoei A9561; experiment: MIC, serial two-fold dilution method (anaerobic); details: Clostridium chauvoei A9561; GAM agar medium; inoculum 10^7-10^8; read-out: minimum inhibitory concentration (MIC)
Protocol: as §1

[6] = tested on: Clostridium septicum A21869; experiment: MIC, serial two-fold dilution method (anaerobic); details: Clostridium septicum A21869; GAM agar medium; inoculum 10^7-10^8; read-out: minimum inhibitory concentration (MIC)
Protocol: as §1

[7] = tested on: Clostridium difficile A21972; experiment: MIC, serial two-fold dilution method (anaerobic); details: Clostridioides difficile; Clostridium difficile A21972; GAM agar medium; inoculum 10^7-10^8; read-out: minimum inhibitory concentration (MIC)
Protocol: as §1

[8] = tested on: Bacteroides fragilis A20926; experiment: MIC, serial two-fold dilution method (anaerobic); details: Bacteroides fragilis A20926; GAM agar medium; inoculum 10^7-10^8; read-out: minimum inhibitory concentration (MIC)
[9] = tested on: Fusobacterium varium ATCC 8501; experiment: MIC, serial two-fold dilution method (anaerobic); details: ATCC8501; Fusobacterium varium ATCC 8501; GAM agar medium; inoculum 10^7-10^8; read-out: minimum inhibitory concentration (MIC)
[10] = tested on: Staphylococcus aureus A20394; experiment: MIC, serial two-fold dilution method (aerobic); details: Staphylococcus aureus A20394; Mueller-Hinton agar; inoculum 10^4; read-out: minimum inhibitory concentration (MIC)
[11] = tested on: Bacteroides fragilis A22695; experiment: MIC, serial two-fold dilution method (anaerobic); details: Bacteroides fragilis A22695; GAM agar medium; inoculum 10^7-10^8; read-out: minimum inhibitory concentration (MIC)
[12] = tested on: Bacteroides fragilis A20929; experiment: MIC, serial two-fold dilution method (anaerobic); details: Bacteroides fragilis A20929; GAM agar medium; inoculum 10^7-10^8; read-out: minimum inhibitory concentration (MIC)
[13] = tested on: Clostridium perfringens A22787; experiment: microbe, parasite or virus in culture; details: Clostridium perfringens, A22787, read-out: minimum inhibitory concentration (MIC)
[14] = tested on: Propionibacterium acnes A22650; experiment: MIC, serial two-fold dilution method (anaerobic); details: Cutibacterium acnes; Propionibacterium acnes A22650; GAM agar medium; inoculum 10^7-10^8; read-out: minimum inhibitory concentration (MIC)
[15] = tested on: Clostridium cylindrosporum A9562; experiment: MIC, serial two-fold dilution method (anaerobic); details: Clostridium cylindrosporum A9562; GAM agar medium; inoculum 10^7-10^8; read-out: minimum inhibitory concentration (MIC)
[16] = tested on: Proteus mirabilis A9554; experiment: MIC, serial two-fold dilution method (aerobic); details: Proteus mirabilis A9554; Mueller-Hinton agar; inoculum 10^4; read-out: minimum inhibitory concentration (MIC)
[17] = tested on: Peptostreptococcus intermedius A21881; experiment: MIC, serial two-fold dilution method (anaerobic); details: Peptostreptococcus intermedius A21881; GAM agar medium; inoculum 10^7-10^8; read-out: minimum inhibitory concentration (MIC)
[18] = tested on: Micrococcus flavus D-12; experiment: MIC, serial two-fold dilution method (aerobic); details: D12; Micrococcus flavus D-12; Mueller-Hinton agar; inoculum 10^4; read-out: minimum inhibitory concentration (MIC)
[19] = tested on: Fusobacterium necrophorum A20013; experiment: MIC, serial two-fold dilution method (anaerobic); details: Fusobacterium necrophorum A20013; GAM agar medium; inoculum 10^7-10^8; read-out: minimum inhibitory concentration (MIC)
[20] = tested on: Staphylococcus aureus 209P; experiment: MIC, serial two-fold dilution method (aerobic); details: Staphylococcus aureus 209P; Mueller-Hinton agar; inoculum 10^4; read-out: minimum inhibitory concentration (MIC)
[21] = tested on: Staphylococcus aureus A9601; experiment: MIC, serial two-fold dilution method (aerobic); details: Staphylococcus aureus A9601; Mueller-Hinton agar; inoculum 10^4; read-out: minimum inhibitory concentration (MIC)
[22] = tested on: Propionibacterium acnes A21933; experiment: MIC, serial two-fold dilution method (anaerobic); details: Cutibacterium acnes; Propionibacterium acnes A21933; GAM agar medium; inoculum 10^7-10^8; read-out: minimum inhibitory concentration (MIC)
[23] = tested on: Staphylococcus aureus A20701; experiment: MIC, serial two-fold dilution method (aerobic); details: Staphylococcus aureus A20701; Mueller-Hinton agar; inoculum 10^4; read-out: minimum inhibitory concentration (MIC)
[24] = tested on: Veillonella alcalescens A21914-1; experiment: MIC, serial two-fold dilution method (anaerobic); details: Veillonella parvula, A219141; Veillonella alcalescens A21914-1; GAM agar medium; inoculum 10^7-10^8; read-out: minimum inhibitory concentration (MIC)
[25] = tested on: Escherichia coli NIHJ; experiment: MIC, serial two-fold dilution method (aerobic); details: Escherichia coli NIHJ; Mueller-Hinton agar; inoculum 10^4; read-out: minimum inhibitory concentration (MIC)
[26] = tested on: Staphylococcus aureus A20610; experiment: MIC, serial two-fold dilution method (aerobic); details: Staphylococcus aureus A20610; Mueller-Hinton agar; inoculum 10^4; read-out: minimum inhibitory concentration (MIC)

Compound `CC[C@H]1OC(=O)[C@H](C)[C@@H](O[C@H]2C[C@@](C)(OC)[C@@H](O)[C@H](C)O2)[C@H](C)[C@@H](O[C@@H]2O[C@H](C)C[C@H](N(C)C)[C@H]2O)[C@](C)(O)C[C@@H](C)C(=O)[C@H](C)[C@@H](O)[C@]1(C)O` [Erythromycin] has an MIC [1] of 1.6 µg/mL (≈ 2.18 µM), an MIC [2] of 0.013 µg/mL (≈ 0.0177 µM) and an MIC [3] of 3.1 µg/mL (≈ 4.22 µM). For the same compound, the MIC [4] was > 100 µg/mL, the MIC [5] was 1.6 µg/mL (≈ 2.18 µM) and the MIC [6] was 0.8 µg/mL (≈ 1.09 µM). The MIC [7] was 3.1 µg/mL (≈ 4.22 µM), the MIC [8] was < 0.05 µg/mL and the MIC [9] was 1.6 µg/mL (≈ 2.18 µM). It also gave an MIC [10] of 0.2 µg/mL (≈ 0.273 µM), an MIC [11] of 3.1 µg/mL (≈ 4.22 µM) and an MIC [12] of 1.6 µg/mL (≈ 2.18 µM). The MIC [13] was > 100 µg/mL, the MIC [14] was < 0.0063 µg/mL and the MIC [15] was 3.1 µg/mL (≈ 4.22 µM). The MIC [16] was > 100 µg/mL, the MIC [17] was 0.4 µg/mL (≈ 0.545 µM) and the MIC [18] was < 0.05 µg/mL. The MIC [19] was > 100 µg/mL, the MIC [20] was 0.1 µg/mL (≈ 0.136 µM) and the MIC [21] was 0.4 µg/mL (≈ 0.545 µM). The MIC [22] was 1.6 µg/mL (≈ 2.18 µM), the MIC [23] was > 100 µg/mL and the MIC [24] was 0.2 µg/mL (≈ 0.273 µM). For the same compound, the MIC [25] was 100 µg/mL (≈ 136 µM) and the MIC [26] was > 100 µg/mL.
`O=C(N[C@H](CO)[C@H](O)c1ccc([N+](=O)[O-])cc1)C(Cl)Cl` [Chloramphenicol] was tested, and the MIC [1] was 6.3 µg/mL (≈ 19.5 µM), the MIC [2] was 3.1 µg/mL (≈ 9.59 µM) and the MIC [3] was 3.1 µg/mL (≈ 9.59 µM). It also gave an MIC [4] of 3.1 µg/mL (≈ 9.59 µM), an MIC [5] of 6.3 µg/mL (≈ 19.5 µM) and an MIC [6] of 6.3 µg/mL (≈ 19.5 µM). The MIC [7] was 3.1 µg/mL (≈ 9.59 µM), the MIC [8] was 3.1 µg/mL (≈ 9.59 µM) and the MIC [9] was 6.3 µg/mL (≈ 19.5 µM). The MIC [10] was 50 µg/mL (≈ 155 µM), the MIC [11] was 3.1 µg/mL (≈ 9.59 µM) and the MIC [12] was 3.1 µg/mL (≈ 9.59 µM). It also gave an MIC [13] of 6.3 µg/mL (≈ 19.5 µM), an MIC [14] of 0.4 µg/mL (≈ 1.24 µM) and an MIC [15] of 6.3 µg/mL (≈ 19.5 µM). For the same compound, the MIC [16] was 12.5 µg/mL (≈ 38.7 µM), the MIC [17] was 3.1 µg/mL (≈ 9.59 µM) and the MIC [18] was 1.6 µg/mL (≈ 4.95 µM). For the same compound, the MIC [19] was 6.3 µg/mL (≈ 19.5 µM), the MIC [20] was 3.1 µg/mL (≈ 9.59 µM) and the MIC [21] was 6.3 µg/mL (≈ 19.5 µM). For the same compound, the MIC [22] was 3.1 µg/mL (≈ 9.59 µM), the MIC [23] was 50 µg/mL (≈ 155 µM) and the MIC [24] was 1.6 µg/mL (≈ 4.95 µM). The MIC [25] was 0.8 µg/mL (≈ 2.48 µM) and the MIC [26] was 50 µg/mL (≈ 155 µM).
